Experimental findings from US20250213697A1, “INJECTABLE AND/OR SPRAYABLE, IN SITU POLYMERIZABLE COLLAGEN COMPOSITIONS FOR SUSTAINED DELIVERY OF THERAPEUTICS” (priority 2023, published 2025) are described below.

What all share (assay type): physicochemical
Data set [1] can be described thus: Film formation of sprayed in situ polymerizable collagen on skin or skin wounds. To be noted: EGF 5,000-20,000 IU/mL. As for the experimental part:
The sprayable in situ polymerizable collagen was prepared by mix in situ polymerizable collagen prepared in Example 1 with PBS at volume ratio of 2:1. After mixing by stirring at 50 rpm for 10 min, the gel was centrifuge to remove the bubbles. The sprayable in situ polymerizable collagen was less viscous with better flowability and placed in a spray bottle and still remained transparent under room temperature. […] The in situ polymerizable collagen solution with EGF was sprayed to skin wounds through spray bottle and formed a film to cover the wound within 120 sec, providing a wet healing environment and continuous EGF delivery to accelerate skin healing or improve skin condition.

Data set [2] can be described thus: In vitro polymerization test of collagen/antibiotic compositions injected into WFI. To be noted: 27-gauge needle. As for the experimental part: 50 mg lyophilized and powdered (by mortar and pestle) Voriconazole was mixed with 200 μL of in situ polymerizable collagen solution prepared according to Example 1 by passing the powder into the collagen solution using two syringes attached with a female-female adaptor. The mixture appeared clear and transparent (FIG. 4A). Aliquots were injected into water for injection (WFI) using a 27-gauge needle. A control sample composed of in situ polymerizable collagen solution only was also injected into WFI.
Two other antibiotics, Cefuroxime and Vigamox, were mixed to in situ polymerizable collagen using the same method used for adding Voriconazole to the collagen to form a collagen/antibiotic composition, respectively. […] The appearance of the mixture depends on the solubility of the antibiotics.

A short description of data set [3]: Short-term controlled release of lidocaine from collagen gel into 0.9% NaCl (HPLC). To be noted: gel in 0.9% NaCl, 37° C., 80 RPM; FIG. 6.
Protocol: One third of the same volume of collagen solution of a lidocaine sterile solution (0.9% Lidocaine, 7% Mannitol, 80 mM EDTA-2Na, 0.05M Na2CO3 and 0.05M NaHCO3) was added to collagen. 2 mL final mixed collagen solution was incubated under 37° C. to form a gel and put into 20 mL 37° C. 0.9% NaCl solution with a stir bar stirring at 80 RPM. At 10 min, 20 min, 30 min, 60 min, 90 min, and 120 min, 2 mL NaCl solution was collected to test lidocaine concentration and additional 2 mL 0.9% NaCl solution was replenished. HPLC method was used to measured lidocaine concentration and calculated to the percentage release of the lidocaine in collagen gel.
Data set [4] can be described thus: In vitro release of Compstatin from in situ polymerizable collagen. How it is done: Delivery of a complement peptide-Compstatin from in situ polymerizable collagen prepared according to Example 1 was studied in vitro. In vitro release was measured for 6 weeks to ascertain the optimum collagen formulation.
Data set [5] in a line: In vitro release of latanoprost from in situ polymerizable collagen gels into physiological saline (HPLC). How it is done: Latanoprost (13,14-dihydro-17-phenyl-18,19,20-trinor-prostaglandin F2a-1-isopropyl ester) was obtained from Sigma-Aldrich. Soluble, pepsin digested, bovine collagen for drug delivery formulations was purchased from Advanced Biomatrix. In situ polymerizable collagen was prepared according to Example 1 by extensive dialysis of salt precipitated collagen against 0.035M EDTA with step-wise increase in pH to 7.5. Latanoprost was dissolved in 95% ethanol and added to polymerizable collagen solution to provide gel depots containing 250 μg latanoprost/100 μL collagen. The solutions were incubated in 1.0 mL of physiological saline at 37° C. The entire 1.0 mL volume was removed at time periods ranging from 1 day to 174 days and replaced with 1.0 mL of fresh saline. Latanoprost concentration in saline aliquots was measured by HPLC analysis (Millennium Research Laboratories).
In situ polymerizable collagen gels provided sustained in vitro release of Latanoprost for more than 30 days.

Take “EGF: Epidermal Growth Factor lyophilized powder dissolved in in situ polymerizable collagen solution, 5,000-20,000 IU/mL”: the “time to form a film covering the wound” value in data set [1] was ≤ 120 s.

Turning to `CO/N=C(\C(=O)N[C@@H]1C(=O)N2C(C(=O)O)=C(COC(N)=O)CS[C@H]12)c1ccco1` [Cefuroxime], the collagen fibril formation result in data set [2] is reported as “do not blocking the fibril formation”.

In the case of `CCN(CC)CC(=O)Nc1c(C)cccc1C` [lidocaine], the “controlled release of lidocaine” value in data set [3] was “within two hours”.

As to `CC[C@H](C)[C@H](N)C(=O)N[C@H]1CSSC[C@@H](C(=O)N[C@H](C(N)=O)[C@@H](C)O)NC(=O)[C@H](CCCN=C(N)N)NC(=O)[C@H](Cc2cnc[nH]2)NC(=O)[C@H](Cc2cnc[nH]2)NC(=O)CNC(=O)[C@H](Cc2c[nH]c3ccccc23)NC(=O)[C@H](CC(=O)O)NC(=O)[C@H](CCC(N)=O)NC(=O)[C@H](C(C)C)NC(=O)[C@H](C(C)C)NC1=O` [Compstatin], in data set [4], the “duration of initial burst” value worked out at 4 days and the “duration of sustained release” value is 6 weeks. Also, the release kinetics result in data set [4] (measured for 6 weeks) was “bi-phasic release kinetics”.

Consider `CC(C)OC(=O)CCC/C=C\C[C@@H]1[C@@H](CC[C@@H](O)CCc2ccccc2)[C@H](O)C[C@@H]1O` [Latanoprost, 13,14-dihydro-17-phenyl-18,19,20-trinor-prostaglandin F2a-1-isopropyl ester], for which the “duration of sustained in vitro release of Latanoprost” value in data set [5] (in situ polymerizable collagen gels, saline 37° C.) is reported as “more than 30 days”. Besides, the “initial release of Latanoprost” value in data set [5] (polymerizable gels added directly to saline solution) is given as “large initial release”; in data set [5] (polymerizable gels partially pre-polymerized), “reduced initial release”. The “sustained release of Latanoprost, average” value in data set [5] (polymerizable gels added directly to saline solution, 250 μg latanoprost/100 μL collagen, 37° C.) was 0.54 µg/day. Also, the “average sustained release rate of Latanoprost” value in data set [5] (polymerizable gels partially pre-polymerized before placing in solution, 250 μg latanoprost/100 μL collagen, 37° C.) came out at 1.4 µg/day.
